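Exposure lasted 48 hours, with cells grown in 96-well plates and compounds tested at five concentrations. At the TGI there is no net growth.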
How the values were obtained:
Test in all cases: growth of human tumour cells (NCI), 48 h
786-0 renal = tested on: 786-0 renal
A498 renal = tested on: A498 renal
ACHN renal = tested on: ACHN renal
BT-549 breast = tested on: BT-549 breast
CAKI-1 renal = tested on: CAKI-1 renal
CCRF-CEM leukemia = tested on: CCRF-CEM leukemia
COLO 205 colon = tested on: COLO 205 colon
DU-145 prostate = tested on: DU-145 prostate
EKVX NSCLC = tested on: EKVX NSCLC
HCC-2998 colon = tested on: HCC-2998 colon
HCT-116 colon = tested on: HCT-116 colon
HCT-15 colon = tested on: HCT-15 colon
HL-60(TB) leukemia = tested on: HL-60(TB) leukemia
HOP-62 NSCLC = tested on: HOP-62 NSCLC
HOP-92 NSCLC = tested on: HOP-92 NSCLC
HS 578T breast = tested on: HS 578T breast
HT29 colon = tested on: HT29 colon
IGROV1 ovarian = tested on: IGROV1 ovarian
K-562 leukemia = tested on: K-562 leukemia
KM12 colon = tested on: KM12 colon
M14 melanoma = tested on: M14 melanoma
MCF7 breast = tested on: MCF7 breast
MDA-MB-231 breast = tested on: MDA-MB-231 breast
MDA-MB-435 = tested on: MDA-MB-435
MDA-N = tested on: MDA-N
MOLT-4 leukemia = tested on: MOLT-4 leukemia
NCI-H226 lung = tested on: NCI-H226 lung
NCI-H23 lung = tested on: NCI-H23 lung
NCI-H460 lung = tested on: NCI-H460 lung
NCI-H522 lung = tested on: NCI-H522 lung
NCI/ADR-RES ovarian = tested on: NCI/ADR-RES ovarian
OVCAR-3 ovarian = tested on: OVCAR-3 ovarian
OVCAR-4 ovarian = tested on: OVCAR-4 ovarian
OVCAR-5 ovarian = tested on: OVCAR-5 ovarian
OVCAR-8 ovarian = tested on: OVCAR-8 ovarian
PC-3 prostate = tested on: PC-3 prostate
RPMI-8226 leukemia = tested on: RPMI-8226 leukemia
RXF 393 renal = tested on: RXF 393 renal
SF-268 CNS = tested on: SF-268 CNS
SF-295 CNS = tested on: SF-295 CNS
SK-MEL-28 melanoma = tested on: SK-MEL-28 melanoma
SK-MEL-5 melanoma = tested on: SK-MEL-5 melanoma
SK-OV-3 ovarian = tested on: SK-OV-3 ovarian
SN12C renal = tested on: SN12C renal
SNB-19 CNS = tested on: SNB-19 CNS
SNB-75 CNS = tested on: SNB-75 CNS
SR leukemia = tested on: SR leukemia
SW-620 colon = tested on: SW-620 colon
T-47D breast = tested on: T-47D breast
U251 CNS = tested on: U251 CNS
UACC-257 melanoma = tested on: UACC-257 melanoma
UACC-62 melanoma = tested on: UACC-62 melanoma
UO-31 renal = tested on: UO-31 renal
A549 NSCLC = tested on: A549 NSCLC
DMS 114 small cell lung = tested on: DMS 114 small cell lung
HOP-18 NSCLC = tested on: HOP-18 NSCLC
KM20L2 colon = tested on: KM20L2 colon
LOX IMVI melanoma = tested on: LOX IMVI melanoma
LXFL 529 NSCLC = tested on: LXFL 529 NSCLC
M19-MEL melanoma = tested on: M19-MEL melanoma
MALME-3M melanoma = tested on: MALME-3M melanoma
SF-539 CNS = tested on: SF-539 CNS
SK-MEL-2 melanoma = tested on: SK-MEL-2 melanoma
SNB-78 CNS = tested on: SNB-78 CNS
TK-10 renal = tested on: TK-10 renal

## O=C(Nc1cc(Cl)c(I)c(Cl)c1)C(F)(F)F
786-0 renal
  TGI: 74.4 µM
A498 renal
  TGI: 47.8 µM
ACHN renal
  TGI: > 100 µM
BT-549 breast
  TGI: 63 µM
CAKI-1 renal
  TGI: 56.5 µM
CCRF-CEM leukemia
  TGI: 66.4 µM
COLO 205 colon
  TGI: 53.9 µM
DU-145 prostate
  TGI: > 100 µM
EKVX NSCLC
  TGI: > 100 µM
HCC-2998 colon
  TGI: 34.2 µM
HCT-116 colon
  TGI: 71.2 µM
HCT-15 colon
  TGI: 45.9 µM
HL-60(TB) leukemia
  TGI: 58.3 µM
HOP-62 NSCLC
  TGI: > 100 µM
HOP-92 NSCLC
  TGI: 46.9 µM
HS 578T breast
  TGI: 75.7 µM
HT29 colon
  TGI: 37.4 µM
IGROV1 ovarian
  TGI: > 100 µM
K-562 leukemia
  TGI: 81.8 µM
KM12 colon
  TGI: 85.4 µM
M14 melanoma
  TGI: 60.3 µM
MCF7 breast
  TGI: > 100 µM
MDA-MB-231 breast
  TGI: > 100 µM
MDA-MB-435
  TGI: > 100 µM
MDA-N
  TGI: > 100 µM
MOLT-4 leukemia
  TGI: 82.7 µM
NCI-H226 lung
  TGI: 66.8 µM
NCI-H23 lung
  TGI: 70.8 µM
NCI-H460 lung
  TGI: > 100 µM
NCI-H522 lung
  TGI: 42.2 µM
NCI/ADR-RES ovarian
  TGI: > 100 µM
OVCAR-3 ovarian
  TGI: 81.2 µM
OVCAR-4 ovarian
  TGI: > 100 µM
OVCAR-5 ovarian
  TGI: 83 µM
OVCAR-8 ovarian
  TGI: 56.8 µM
PC-3 prostate
  TGI: 83.8 µM
RPMI-8226 leukemia
  TGI: > 100 µM
RXF 393 renal
  TGI: 34.5 µM
SF-268 CNS
  TGI: > 100 µM
SF-295 CNS
  TGI: > 100 µM
SK-MEL-28 melanoma
  TGI: 74 µM
SK-MEL-5 melanoma
  TGI: 36.1 µM
SK-OV-3 ovarian
  TGI: 58.9 µM
SN12C renal
  TGI: > 100 µM
SNB-19 CNS
  TGI: > 100 µM
SNB-75 CNS
  TGI: > 100 µM
SR leukemia
  TGI: 99.5 µM
SW-620 colon
  TGI: > 100 µM
T-47D breast
  TGI: 97.6 µM
U251 CNS
  TGI: > 100 µM
UACC-257 melanoma
  TGI: > 100 µM
UACC-62 melanoma
  TGI: 48.9 µM
UO-31 renal
  TGI: 73.7 µM

## Cn1cc(-c2ccc3c4ccccc4n(C)c3c2)c2ccccc21
786-0 renal
  TGI: > 100 µM
A498 renal
  TGI: > 100 µM
A549 NSCLC
  TGI: > 100 µM
ACHN renal
  TGI: > 100 µM
CAKI-1 renal
  TGI: > 100 µM
CCRF-CEM leukemia
  TGI: > 100 µM
COLO 205 colon
  TGI: > 100 µM
DMS 114 small cell lung
  TGI: > 100 µM
EKVX NSCLC
  TGI: > 100 µM
HCC-2998 colon
  TGI: > 100 µM
HCT-116 colon
  TGI: > 100 µM
HCT-15 colon
  TGI: > 100 µM
HL-60(TB) leukemia
  TGI: > 100 µM
HOP-18 NSCLC
  TGI: > 100 µM
HOP-62 NSCLC
  TGI: > 100 µM
HT29 colon
  TGI: > 100 µM
IGROV1 ovarian
  TGI: > 100 µM
K-562 leukemia
  TGI: > 100 µM
KM12 colon
  TGI: > 100 µM
KM20L2 colon
  TGI: > 100 µM
LOX IMVI melanoma
  TGI: > 100 µM
LXFL 529 NSCLC
  TGI: > 100 µM
M14 melanoma
  TGI: > 100 µM
M19-MEL melanoma
  TGI: > 100 µM
MALME-3M melanoma
  TGI: > 100 µM
MOLT-4 leukemia
  TGI: > 100 µM
NCI-H226 lung
  TGI: > 100 µM
NCI-H23 lung
  TGI: > 100 µM
NCI-H460 lung
  TGI: > 100 µM
NCI-H522 lung
  TGI: > 100 µM
OVCAR-3 ovarian
  TGI: > 100 µM
OVCAR-4 ovarian
  TGI: > 100 µM
OVCAR-5 ovarian
  TGI: > 100 µM
OVCAR-8 ovarian
  TGI: > 100 µM
RPMI-8226 leukemia
  TGI: > 100 µM
RXF 393 renal
  TGI: > 100 µM
SF-268 CNS
  TGI: > 100 µM
SF-295 CNS
  TGI: > 100 µM
SF-539 CNS
  TGI: > 100 µM
SK-MEL-2 melanoma
  TGI: > 100 µM
SK-MEL-28 melanoma
  TGI: > 100 µM
SK-MEL-5 melanoma
  TGI: > 100 µM
SK-OV-3 ovarian
  TGI: > 100 µM
SN12C renal
  TGI: > 100 µM
SNB-19 CNS
  TGI: > 100 µM
SNB-75 CNS
  TGI: > 100 µM
SNB-78 CNS
  TGI: > 100 µM
SW-620 colon
  TGI: > 100 µM
TK-10 renal
  TGI: > 100 µM
U251 CNS
  TGI: > 100 µM
UACC-257 melanoma
  TGI: > 100 µM
UACC-62 melanoma
  TGI: > 100 µM
UO-31 renal
  TGI: > 100 µM
